Experiment in all cases: growth of human tumour cells (NCI), 48 h
The subject of test [1] is HCT-15.
For test [2], the system named is PC-3.
Test [3] concerns UO-31.
The test system of test [4] is IGROV-1.
Test [5] relates to COLO 205.
Test [6] relates to OVCAR-5.
In test [7] the test system is SK-MEL-5.
The test system of test [8] is Hs-578T.
The test system of test [9] is EKVX.
Test [10] relates to SF-539.
The subject of test [11] is OVCAR-3.
Test [12] concerns MCF7.
Test [13] concerns SNB-19.
Test [14] has as its system RPMI-8226.
Test [15] deals with T47D.
The test system of test [16] is A498.
Test [17] concerns SF-268.
Test [18] has as its system NCI-H23.
Test [19] deals with SR.
Test [20] concerns SNB-75.

We go through 11 compounds from ChEMBL document CHEMBL1201862, “PubChem BioAssay data set” (2004).

Where “and” joins values, the source holds several entries; their conditions need not be identical. Identical values can stand only once.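 All cell lines were grown in 96-well plates and treated with compound for 48 hours. Here, GI50 denotes the concentration required for 50% inhibition of growth.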 Calls of active or inactive are those of the source. No stated cut-off is given here; in the data, active = GI50 up to about 1.1 µM and inactive = higher. Bounds are passed on as bounds.

Take `COc1nc2ncc([C@@H](OC(C)=O)[C@@H](COC(C)=O)OC(C)=O)nc2c(=O)[nH]1`: the GI50 in test [1] was greater than 100 µM; in test [2] it was > 100 µM (inactive); in [3], > 100 µM (inactive); in test [4] it was > 100 µM (inactive); in test [5] it was > 100 µM (inactive); in test [6], > 100 µM (inactive). Also, the GI50 in [7], in test [8], in [9], in test [10], in test [11] and in test [12] was > 100 µM (inactive) throughout. In addition, the GI50 is > 100 µM (inactive) in test [13]; > 100 µM (inactive) in test [14]; > 100 µM (inactive) in test [15]; > 100 µM (inactive) in test [16]; > 100 µM (inactive) and 83.4 µM (inactive) in test [17].
Consider `COC(=O)c1cc(C)n(CN(Cn2nc(C(=O)OC)cc2C)c2ccccc2)n1`, for which the GI50 in test [1] was 18 µM; in [2] it was 28.3 µM (inactive); in [3], 18.3 µM (inactive); in test [4], 43 µM (inactive); in test [5], 16 µM (inactive); in test [6], 48.4 µM (inactive). Further, the GI50 in [7] was 36 µM (inactive); in test [8], > 100 µM (inactive); in [9] it was > 100 µM (inactive); in test [10], 17.7 µM (inactive); in [18], 25.2 µM (inactive); in [11] it was > 100 µM (inactive). Further, the GI50 in test [12] is 28.1 µM (inactive); in [19], 10 µM (inactive); in [13], > 100 µM (inactive); in test [14], 17.3 µM (inactive); in test [15], 22 µM (inactive); in test [16], > 100 µM (inactive). Moreover, the GI50 in [17] was 34 µM (inactive).
`Cc1csc2nc(-c3ccc([N+](=O)[O-])cc3)c(/C=N/N=C(N)N)n12`: the GI50 is 0.791 µM in [1]; 1.69 µM (inactive) in test [2]; 1.58 µM (inactive) in [20]; 1.49 µM (inactive) in [3]; 1.44 µM (inactive) in test [4]; 1.53 µM (inactive) in test [5]. For the same compound, the GI50 in test [6] is 1.52 µM (inactive); in test [7], 1.91 µM (inactive); in test [8], 2.09 µM (inactive); in test [9], 1.39 µM (inactive); in [10], 1.85 µM (inactive); in [18], 1.64 µM (inactive). For the same compound, the GI50 was 2.49 µM (inactive) in test [11]; 1.61 µM (inactive) in test [12]; 1.92 µM (inactive) in test [13]; 2.05 µM (inactive) in test [14]; 2.79 µM (inactive) in test [15]; 1.82 µM (inactive) in test [16]. Moreover, the GI50 in [17] was 1.68 µM (inactive).
Turning to `CCCCc1ccc(N2C(=O)c3cc(C)cnc3S2(=O)=O)cc1`, the GI50 in test [1] is greater than 100 µM; in test [2], > 100 µM (inactive); in [20], 59.2 µM (inactive); in test [3], > 100 µM (inactive); in [4], > 100 µM (inactive); in test [5], > 100 µM (inactive). In addition, the GI50 is > 100 µM (inactive) in test [6]; > 100 µM (inactive) in test [7]; 43.1 µM (inactive) in [8]; > 100 µM (inactive) in test [9]; > 100 µM (inactive) in test [18]; > 100 µM (inactive) in test [11]. Moreover, the GI50 in test [12] was > 100 µM (inactive); in test [19] it was > 100 µM (inactive); in test [13], > 100 µM (inactive); in [14], > 100 µM (inactive); in [15], > 100 µM (inactive); in test [17], 97.5 µM (inactive).
As for `CN(C)c1ccc(/N=C2/NC(=N\c3ccccc3)/C(=N/c3ccccc3)S2)cc1`, the GI50 was greater than 100 µM in [1]; > 100 µM (inactive) in [2]; 27.2 µM (inactive) in [20]; > 100 µM (inactive) in [4]; > 100 µM (inactive) in [5]; > 100 µM (inactive) in test [6]. Also, the GI50 was > 100 µM (inactive) in test [7]; 30.7 µM (inactive) in test [8]; > 100 µM (inactive) in test [9]; > 100 µM (inactive) in test [10]; > 100 µM (inactive) in test [18]; > 100 µM (inactive) in [11]. Moreover, the GI50 was 19.9 µM (inactive) in test [12]; > 100 µM (inactive) in test [19]; 87.3 µM (inactive) in test [13]; 53.1 µM (inactive) in test [15]; 87.3 µM (inactive) in test [16]; > 100 µM (inactive) in [17].
Consider `Cc1cccc2c(N)c3cccc(C(=O)NCC[N+](C)(C)Cc4sccc4[N+](=O)[O-])c3nc12`, for which the GI50 in [1] is 6.18 µM; in [2] it was 11.9 µM (inactive); in test [20], 7.28 µM (inactive); in [3], 20.5 µM (inactive); in test [4], 2.71 µM (inactive); in test [5], 13.3 µM (inactive). Moreover, the GI50 in [6] is 5.37 µM (inactive); in test [7], 5.21 µM (inactive); in [8], 1.11 µM (active); in test [9], 18.6 µM (inactive); in test [10], 2.83 µM (inactive); in test [18], 3.94 µM (inactive). The GI50 in test [11] is 19.5 µM (inactive); in test [12] it was 2.04 µM (inactive); in test [19], 0.398 µM (active); in [13], 6.59 µM (inactive); in [15] it was 36.6 µM (inactive); in test [16], 27 µM (inactive). Moreover, the GI50 in test [17] was 19 µM (inactive).
As to `CC1CC/C(=C\c2ccc(F)cc2)C2=C1C(c1ccc(F)cc1)N1C(=O)CSC1=N2` (stereo not drawn), the GI50 in [1] was 43.3 µM; in [2] it was 25.6 µM (inactive); in test [3], 87.9 µM (inactive); in test [4] it was 9.23 µM (inactive); in [5], > 100 µM (inactive); in test [7] it was 40 µM (inactive). For the same compound, the GI50 in [8] was > 100 µM (inactive); in test [9], 17.7 µM (inactive); in test [10], > 100 µM (inactive); in test [18] it was 58.5 µM (inactive); in test [11] it was > 100 µM (inactive); in [12], 55.1 µM (inactive). The GI50 in test [13] was > 100 µM (inactive); in test [14] it was 15.5 µM (inactive); in test [15], 45.1 µM (inactive); in test [16], 57 µM (inactive); in test [17], > 100 µM (inactive).
As for `O=C(Nc1ccc2ccccc2c1)c1cc2cc(CCl)ccc2oc1=O`, the GI50 in test [1] is greater than 100 µM; in [2], > 100 µM (inactive); in test [20], 15.2 µM (inactive); in test [3], > 100 µM (inactive); in test [4], > 100 µM (inactive); in test [5], > 100 µM (inactive). In addition, the GI50 in test [6] was > 100 µM (inactive); in test [7], > 100 µM (inactive); in [8] it was 1.55 µM (inactive); in [9] it was > 100 µM (inactive); in [18] it was 19 µM (inactive); in test [11], > 100 µM (inactive). Also, the GI50 in test [12] is 38.5 µM (inactive); in test [19] it was > 100 µM (inactive); in test [13], 27.6 µM (inactive); in [14], > 100 µM (inactive); in [15], > 100 µM (inactive); in [16], > 100 µM (inactive). In test [17], the GI50 was 14.2 µM (inactive).
Regarding `Cc1c(NC(=O)CSC(=S)N(C)C)c(=O)n(-c2ccccc2)n1C`, the GI50 is greater than 100 µM in test [1]; > 100 µM (inactive) in test [2]; > 100 µM (inactive) in test [20]; > 100 µM (inactive) in test [3]; > 100 µM (inactive) in test [4]; > 100 µM (inactive) in test [5]. Besides, the GI50 in test [6], in test [7], in test [8], in test [9], in test [10] and in test [18] was > 100 µM (inactive) each time. The GI50 in test [11], in test [12], in test [19], in test [13], in test [14] and in test [15] was > 100 µM (inactive) throughout. Moreover, in test [17], the GI50 was > 100 µM (inactive).
Consider `COc1ccc2[nH]c(C(=O)N3CC(CCl)c4ccc(N)cc43)cc2c1` (stereo not drawn), for which the GI50 was 0.287 µM in [1]; 0.233 µM (active) in test [2]; 0.178 µM (active) in test [20]; 0.145 µM (active) in test [3]; 0.175 µM (active) in test [4]; 0.2 µM (active) in test [5]. The GI50 in test [6] is 0.316 µM (active); in [7] it was 0.0451 µM (active); in test [8], 0.335 µM (active); in test [9] it was 0.368 µM (active); in test [10] it was 0.211 µM (active); in [18] it was 0.0726 µM (active). Besides, the GI50 in [11] was 0.27 µM (active); in [12] it was 0.0689 µM (active); in test [13], 0.586 µM (active); in test [14] it was 0.361 µM (active); in test [15], 0.455 µM (active); in test [16] it was 0.0789 µM (active). Besides, the GI50 in [17] is 0.0491 µM (active).
As for `CSC(SC)(C(=O)O)c1cc(-c2c(Cl)cccc2Cl)no1`, the GI50 is 15.5 µM in [1]; 34 µM (inactive) in [2]; 33 µM (inactive) in test [20]; 25.1 µM (inactive) in [3]; 30.4 µM (inactive) in test [4]; 34.4 µM (inactive) in [5]. The GI50 is 60.1 µM (inactive) in [6]; 33.7 µM (inactive) in test [7]; 39.2 µM (inactive) in test [8]; 54.6 µM (inactive) in [9]; > 100 µM (inactive) in test [10]; 19.2 µM (inactive) in test [18]. For the same compound, the GI50 in [11] was 55.6 µM (inactive); in test [12] it was 70.1 µM (inactive); in test [19], 33 µM (inactive); in [13], > 100 µM (inactive); in [14], 16.3 µM (inactive); in test [15], 28.4 µM (inactive). In addition, in test [17], the GI50 was 51.9 µM (inactive).
